{"source": "patent US8658618B2", "about": "“Methods for preventing or reducing neurotoxicity associated with administering DPD inhibitors in combination with 5-FU and 5-FU prodrugs” (Adherex Technologies, Inc., priority 2009, dated 2014)", "key": {"[1]": {"test_system": "mice, monkeys, cats, and dogs", "conditions": "in vivo; cited from earlier work"}, "tumor [2]": {"test_system": "tumor", "conditions": "tumor-bearing rats and tissue culture; cited from earlier work"}, "cancer patients [3]": {"test_system": "cancer patients", "experiment": "Clinical trial: 5 mg eniluracil followed 12-24 hours later by 5-FU, neurotoxicity", "assay_type": "in vivo, human", "conditions": "then 30-160 mg 5-FU 12-24 hours later, 41 patients", "protocol": "Therefore, a clinical trial was initiated wherein cancer patients were administered a 5 mg dose of eniluracil followed by 5-FU at a 30-160 mg dose 12-24 hours later. Unexpectedly, the majority of the 41 patients undergoing this treatment experienced some form of mild to severe neurotoxicity, with the main neurological symptoms being ataxia (an unsteady gait), neuropathy, confusion, dizziness, and slurred speech.\nBased on this important finding, a clinical trial was initiated wherein cancer patients were administered a 5 mg dose of eniluracil, which was believed to be sufficient to systemically eliminate DPD activity in the patients. 5-FU was then administered 12-24 hours later at a dose of 30-160 mg. Unexpectedly, however, the majority of the 41 patients undergoing this treatment experienced some form of mild to severe neurotoxicity, with the main neurological symptoms being ataxia (an unsteady gait), neuropathy, confusion, dizziness, and slurred speech.\nA clinical trial was initiated based on the important mechanistic findings described in WO 2006/060697. More specifically, cancer patients were administered a 5 mg dose of eniluracil and 12-24 hours thereafter were administered a 30-160 mg dose of 5-FU. […]"}, "[4]": {"experiment": "Calculated amount of eniluracil remaining in the body after 10.5 hours", "parameters": "species or system human", "conditions": "approximately three elimination half-lives", "protocol": "The amounts of eniluracil shown in Table 1 below may be used achieve doses in the 16-20 mg/m^2 range. The calculated amount of eniluracil remaining in the body after 10.5 hours (approximately three elimination half-lives) is also presented. Thus, if the weekly and the 5-day dosing schedules employ doses of 5-FU ranging between about 15-50 mg/m^2, the ratio of eniluracil to 5-FU will always be less than about 1:6 when 5-FU is administered. For example, when the commonly used 25 mg/m^2 dose of 5-FU is administered 10.5 hours after eniluracil, the ratio of eniluracil to 5-FU will be about 1:10 or less."}, "patients": {"test_system": "patients", "conditions": "20 mg eniluracil before 5-FU; 17 patients; cited from earlier work"}, "DPD [5]": {"target": "T1, DPD (Homo sapiens, UniProt Q12882)", "T1 construct": "eliminated greater than 90% of DPD in peripheral blood cells for prolonged periods; from tissue; host or cells: peripheral blood cells of cancer patients", "T1 sequence (Q12882 4-1025)": "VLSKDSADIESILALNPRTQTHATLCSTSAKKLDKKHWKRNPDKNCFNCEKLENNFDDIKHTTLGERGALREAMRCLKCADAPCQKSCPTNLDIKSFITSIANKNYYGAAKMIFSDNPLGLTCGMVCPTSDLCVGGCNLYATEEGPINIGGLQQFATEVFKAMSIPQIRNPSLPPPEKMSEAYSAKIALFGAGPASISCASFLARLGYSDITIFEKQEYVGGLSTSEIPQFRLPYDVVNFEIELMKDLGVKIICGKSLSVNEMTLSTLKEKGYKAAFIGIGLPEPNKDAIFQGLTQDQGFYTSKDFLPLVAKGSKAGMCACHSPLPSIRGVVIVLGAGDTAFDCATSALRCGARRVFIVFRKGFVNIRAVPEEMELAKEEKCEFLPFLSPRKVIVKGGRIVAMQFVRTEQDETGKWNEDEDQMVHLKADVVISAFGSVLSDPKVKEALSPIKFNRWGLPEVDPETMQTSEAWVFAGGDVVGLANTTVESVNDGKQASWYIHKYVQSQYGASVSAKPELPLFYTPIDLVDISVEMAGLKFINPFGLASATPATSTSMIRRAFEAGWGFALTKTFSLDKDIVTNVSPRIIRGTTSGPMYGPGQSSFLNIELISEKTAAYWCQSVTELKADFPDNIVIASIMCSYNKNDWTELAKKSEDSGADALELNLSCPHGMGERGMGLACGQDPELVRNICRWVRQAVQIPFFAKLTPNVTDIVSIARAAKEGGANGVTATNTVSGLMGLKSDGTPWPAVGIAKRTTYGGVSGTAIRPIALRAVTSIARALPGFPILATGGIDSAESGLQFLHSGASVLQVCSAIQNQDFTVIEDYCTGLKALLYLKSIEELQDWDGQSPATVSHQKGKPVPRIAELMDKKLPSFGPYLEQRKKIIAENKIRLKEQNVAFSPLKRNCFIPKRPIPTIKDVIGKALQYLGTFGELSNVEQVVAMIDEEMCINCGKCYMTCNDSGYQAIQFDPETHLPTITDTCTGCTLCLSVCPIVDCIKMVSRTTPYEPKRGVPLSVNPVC", "conditions": "the two patients with neurotoxicity, 20 mg eniluracil (9.5 and 8.0 mg/m^2); cited from earlier work"}, "[6]": {"test_system": "patients with colorectal cancer", "conditions": "cited from earlier work"}, "DPD [7]": {"target": "T1, DPD", "conditions": "eniluracil 0.74 mg/m^2 (about 1 mg total), for prolonged periods; cited from earlier work"}, "[8]": {"conditions": "humans; cited from earlier work"}, "cancer patients [9]": {"test_system": "cancer patients", "conditions": "cited from earlier work"}, "dogs": {"test_system": "dogs", "conditions": "cited from earlier work"}, "DPD [10]": {"target": "T2, DPD (Rattus norvegicus, UniProt O89000)", "T2 construct": "from tissue; host or cells: rat brain, liver, spleen, intestinal mucosa, lung (in vivo dosing)", "T2 sequence (O89000 1-1025)": "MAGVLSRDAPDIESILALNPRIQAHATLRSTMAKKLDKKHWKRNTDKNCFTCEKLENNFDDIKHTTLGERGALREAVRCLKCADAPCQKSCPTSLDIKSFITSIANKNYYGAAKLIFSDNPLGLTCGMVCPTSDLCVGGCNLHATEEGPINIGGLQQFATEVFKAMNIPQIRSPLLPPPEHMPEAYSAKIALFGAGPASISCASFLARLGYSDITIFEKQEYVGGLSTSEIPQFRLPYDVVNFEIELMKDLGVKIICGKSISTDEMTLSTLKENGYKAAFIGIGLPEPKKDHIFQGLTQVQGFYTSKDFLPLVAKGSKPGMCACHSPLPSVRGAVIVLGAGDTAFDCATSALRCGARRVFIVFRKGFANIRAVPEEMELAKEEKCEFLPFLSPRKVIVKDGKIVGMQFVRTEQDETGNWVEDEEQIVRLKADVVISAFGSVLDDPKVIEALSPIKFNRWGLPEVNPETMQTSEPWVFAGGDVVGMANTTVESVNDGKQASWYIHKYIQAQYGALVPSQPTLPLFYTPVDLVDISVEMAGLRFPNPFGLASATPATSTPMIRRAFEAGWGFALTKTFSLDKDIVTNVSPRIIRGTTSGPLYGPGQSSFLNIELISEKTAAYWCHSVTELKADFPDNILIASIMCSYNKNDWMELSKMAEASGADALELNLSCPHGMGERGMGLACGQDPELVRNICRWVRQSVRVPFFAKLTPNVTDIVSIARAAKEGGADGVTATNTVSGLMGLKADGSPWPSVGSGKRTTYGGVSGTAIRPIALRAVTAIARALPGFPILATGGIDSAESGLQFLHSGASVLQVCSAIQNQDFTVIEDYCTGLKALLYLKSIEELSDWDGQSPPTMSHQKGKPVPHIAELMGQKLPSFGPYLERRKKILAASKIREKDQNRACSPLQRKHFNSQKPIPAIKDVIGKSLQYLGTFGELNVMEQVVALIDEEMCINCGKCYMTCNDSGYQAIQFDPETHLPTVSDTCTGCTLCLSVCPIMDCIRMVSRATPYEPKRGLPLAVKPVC", "conditions": "rats; spleen, intestinal mucosa, lung; cited from earlier work"}, "tumors": {"test_system": "tumors", "conditions": "eniluracil with 5-FU, laboratory animals bearing tumors; cited from earlier work"}, "tumor [11]": {"test_system": "tumor", "conditions": "excess eniluracil present at the time 5-FU is administered; cited from earlier work"}, "[12]": {"conditions": "cited from earlier work; for elimination half-life of 5-FU: Phase I"}}, "note": "Read-outs that look alike come from different tables or passages of the source.", "data": [{"molecule": "NCC(F)C(=O)O", "note": "(stereo not drawn) [F-Bal, α-fluoro-β-alanine]", "values": [{"measurement": "neurotoxicity", "setting": "[1]", "result": "can cause neurotoxicity"}]}, {"molecule": "Nc1nc2c(c(=O)[nH]1)N(C=O)C(CNc1ccc(C(=O)N[C@@H](CCC(=O)O)C(=O)O)cc1)CN2", "note": "(stereo partly shown) [Leucovorin]", "values": [{"measurement": "antitumor efficacy of eniluracil and 5-FU", "setting": "tumor [2]", "result": "improve the antitumor efficacy"}]}, {"molecule": "C#Cc1c[nH]c(=O)[nH]c1=O", "note": "[eniluracil, 5-ethynyluracil]", "values": [{"measurement": "patients experiencing some form of mild to severe neurotoxicity", "setting": "cancer patients [3]", "result": "majority"}, {"measurement": "Estimated Amount of Eniluracil remaining 10.5 hr after dosing", "setting": "[4]; eniluracil dose 25 mg", "result": 3.1, "unit": "mg"}, {"measurement": "Estimated Amount of Eniluracil remaining 10.5 hr after dosing", "setting": "[4]; eniluracil dose 30 mg", "result": 3.8, "unit": "mg"}, {"measurement": "Estimated Amount of Eniluracil remaining 10.5 hr after dosing", "setting": "[4]; eniluracil dose 40 mg", "result": 5.0, "unit": "mg"}, {"measurement": "Estimated Amount of Eniluracil remaining 10.5 hr after dosing", "setting": "[4]; eniluracil dose 50 mg", "result": 6.3, "unit": "mg"}, {"measurement": "incidence of neurotoxicity", "setting": "patients", "result": 12, "unit": "%"}, {"measurement": "DPD in peripheral blood cells", "setting": "DPD [5]", "result": "completely inactivated"}, {"measurement": "antitumor benefit versus standard regimen of 5-FU/leucovorin", "setting": "[6]; 10 mg/m^2 eniluracil and 1 mg/m^2 5-FU every 12 hr for 28 days, North American trial", "result": "less antitumor benefit"}, {"measurement": "total incidence of severe neurotoxicity", "setting": "[6]; eniluracil about 11.5 mg/m^2 every 12 hours", "result": 6, "unit": "%"}, {"measurement": "DPD eliminated in peripheral blood cells", "setting": "DPD [7]", "result": "greater than 90%"}, {"measurement": "elimination half-life for eniluracil", "setting": "[8]", "result": "about 3.5 hours"}, {"measurement": "toxicity", "setting": "cancer patients [9]; Phase I clinical trials in cancer patients", "result": "without causing toxicity"}, {"measurement": "safety", "setting": "cancer patients [9]; doses up to 50 mg per day for seven days", "result": "safe"}, {"measurement": "neurotoxicity", "setting": "dogs; dogs pretreated with eniluracil, high blood levels of 5-FU", "result": "without any neurotoxicity"}, {"measurement": "dose required to inactivate 50% of DPD in brain relative to liver and other non-nervous tissues", "setting": "DPD [10]", "result": "approximately six-fold"}, {"measurement": "antitumor efficacy of 5-FU", "setting": "tumors", "result": "significantly improved"}, {"measurement": "antitumor activity of 5-FU", "setting": "tumor [11]", "result": "significantly diminished"}]}, {"molecule": "O=c1[nH]cc(F)c(=O)[nH]1", "note": "[5-FU, 5-Fluorouracil]", "values": [{"measurement": "elimination half-life of 5-FU", "setting": "[12]; after one dose of eniluracil", "result": 3.5, "unit": "h"}, {"measurement": "half-life of 5-FU", "setting": "[12]; eniluracil 3.7 mg/m^2", "result": "4.5 to 6.5", "unit": "h"}, {"measurement": "5-FU elimination half-life", "setting": "[12]; with eniluracil", "result": "4.5 to 6.5", "unit": "h"}, {"measurement": "elimination half-life of 5-FU", "setting": "[12]; without eniluracil", "result": "about 10 minutes"}, {"measurement": "5-FU elimination half-life", "setting": "[12]; without eniluracil", "result": "0.167 to 0.333", "unit": "h"}, {"measurement": "neurotoxicity", "setting": "dogs; intravenous 5-FU alone, only low blood levels of 5-FU", "result": "induced seizures, muscle tremors, and ataxia"}]}]}
